Laboratory results published in ChEMBL document CHEMBL3352596, “Discovery of novel inhibitors of vascular endothelial growth factor-A-Neuropilin-1 interaction by structure-based virtual screening” (Bioorg Med Chem, 2014).

Experiments:
Neuropilin-1 = Neuropilin-1 (Rattus norvegicus, UniProt Q9QWJ9); experiment: Inhibition of biotinylated VEGF-A165 from rat recombinant NRP-1 Fc domain
[1] = target: Neuropilin-1 (Rattus norvegicus) (UniProt Q9QWJ9); experiment: Inhibition of biotinylated VEGF-A165 from rat recombinant NRP-1 Fc domain at 100 uM

| Compound | Ki (Neuropilin-1) | inhibition [1] |
| --- | --- | --- |
| COc1cc(CNCCO)cc(Cl)c1OCc1ccc(Cl)cc1Cl | 7.3 µM | – |
| CC[C@@H](C)NCCCOc1ccc(Cl)c(C)c1C | – | 52.3% |
| CCCNCc1ccc(OCc2ccc(Cl)cc2Cl)c(OC)c1 | – | 60.2% |
| H-ATWLPPR-OH | 5.2 µM | 91.5% |
| CCOc1cc(CNCCO)cc(Br)c1OCc1ccc(Cl)cc1Cl | 10.7 µM | – |
| CCOc1cc(CNCc2ccccc2)cc(Cl)c1OCc1ccccc1Cl | 11.3 µM | – |
| OCCNCc1ccc(OCc2ccccc2)c(Cl)c1 | – | 45.1% |
| COc1cc(CNC(C)c2ccccc2)cc(Br)c1OCc1ccccc1Cl (configuration not stated) | 9.4 µM | – |

Further lines, results first:

| Ki (Neuropilin-1) | inhibition [1] | Compound |
| --- | --- | --- |
| – | 44.8% | CC(C)NCc1ccccc1OCc1ccc(Cl)cc1 |
| – | 53.3% | CC(=O)Nc1ccc2nc(-c3ccccc3C)oc2c1 |
| – | 60.5% | COc1cc(CNCCO)cc(Br)c1OCc1ccccc1Cl |
| – | 55.3% | Cc1cc(O)c(C(=O)COc2ccccc2)c(O)c1 |
| – | 71.5% | CCOc1cc(CNCCO)ccc1OCc1ccc(Cl)cc1Cl |
| – | 41.6% | CC[C@H](C)c1ccccc1OCCCCN(CC)CC |
| – | 59.2% | CCNCc1cc(Cl)c(OCc2ccccc2Cl)c(OC)c1 |
| – | 47.3% | Clc1ccc(COc2ccc(CNC3CC3)cc2)cc1 |
